From ChEMBL document CHEMBL1153614, “Synthesis, spectral characterization, in-vitro microbiological evaluation and cytotoxic activities of novel macrocyclic bis hydrazone” (Eur J Med Chem, 2009)

What was measured:
[1] = system: Candida albicans; assay: Antifungal activity against Candida albicans at 10 ug/ml for 48 hrs by disc diffusion method; type: functional
[2] = system: Shigella dysenteriae; assay: Antibacterial activity against Shigella dysenteriae at 10 ug/ml for 24 hrs by disc diffusion method; type: functional
[3] = system: Bacillus subtilis; assay: Antibacterial activity against Bacillus subtilis at 10 ug/ml for 24 hrs by disc diffusion method; type: functional
[4] = system: Escherichia coli; assay: Antibacterial activity against Escherichia coli at 10 ug/ml for 24 hrs by disc diffusion method; type: functional
[5] = system: Artemia salina; assay: Toxicity against Artemia salina; type: organism-based; settings: in vivo
[6] = system: Aspergillus niger; assay: Antifungal activity against Aspergillus niger at 10 ug/ml for 48 hrs by disc diffusion method; type: functional
[7] = system: Staphylococcus aureus; assay: Antibacterial activity against Staphylococcus aureus at 10 ug/ml for 24 hrs by disc diffusion method; type: functional
[8] = system: Bacillus cereus; assay: Antibacterial activity against Bacillus cereus at 10 ug/ml for 24 hrs by disc diffusion method; type: functional
[9] = system: Pseudomonas aeruginosa; assay: Antibacterial activity against Pseudomonas aeruginosa at 10 ug/ml for 24 hrs by disc diffusion method; type: functional
[10] = system: Micrococcus; assay: Antibacterial activity against Micrococcus sp. at 10 ug/ml for 24 hrs by disc diffusion method; type: functional
[11] = system: Penicillium; assay: Antifungal activity against Penicillium at 10 ug/ml for 48 hrs by disc diffusion method; type: functional

Compound | Activity [1] [mm] | Activity [2] [mm] | Activity [3] [mm] | Activity [4] [mm] | Activity [5] | Activity [6] [mm] | Activity [7] [mm] | Activity [8] [mm] | Activity [9] [mm] | Activity [10] [mm] | Activity [11] [mm]
Cc1cc2c(O)c(c1)/C=N\NC(=O)c1ccc(cc1)C(=O)N/N=C\c1cc(O)c(cc1C)/C=N\NC(=O)c1ccc(cc1)C(=O)NN=C2 | 16 | 16 | 20 | 16 | Non-toxic | 22 | 10 | 16 | 14 | 14 | 20
GENTAMICIN |  | 20 | 20 | 20 |  |  | 20 | 20 | 20 | 20 | 
OC(Cn1cncn1)(Cn1cncn1)c1ccc(F)cc1F [FLUCONAZOLE] | 24 |  |  |  |  | 24 |  |  |  |  | 24
